Data on nine compounds can be found in US20190119282A1, “IMIDAZOPYRIDAZINES USEFUL AS INHIBITORS OF THE PAR-2 SIGNALING PATHWAY” (Vertex Pharmaceuticals Incorporated, priority 2013, published 2019).

Marks after values point to notes of the source that are not given here.

Data set [1] has as its target T1, PAR2 (HT-29 cells, SLIGKV activation) (Homo sapiens, UniProt P55085).
T1 construct: host or cells: HT-29 cells
T1 sequence (P55085 26-397): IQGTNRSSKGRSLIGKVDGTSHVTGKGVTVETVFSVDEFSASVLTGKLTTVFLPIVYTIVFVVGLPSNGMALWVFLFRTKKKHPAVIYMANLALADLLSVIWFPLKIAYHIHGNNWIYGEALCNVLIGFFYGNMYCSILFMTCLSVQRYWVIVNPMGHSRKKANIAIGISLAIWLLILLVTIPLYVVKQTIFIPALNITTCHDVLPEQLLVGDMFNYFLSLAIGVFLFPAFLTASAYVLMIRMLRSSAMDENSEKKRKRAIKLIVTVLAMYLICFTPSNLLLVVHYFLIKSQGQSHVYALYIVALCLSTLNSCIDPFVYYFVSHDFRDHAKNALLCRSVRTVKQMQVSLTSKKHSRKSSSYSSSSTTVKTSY
Put plainly: Ca FLIPR TETRA assay, ANTAGONIST mode, stimulation with 8 μM SLIGKV. In kind it is cell-based. Conditions: HT-29 cells, antagonist mode, stimulation with 8 μM SLIGKV. An outline of the steps:
(§1)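 Antagonist-mode assay: dye-loaded HT-29 cells, compound 30 min at r.t., then stimulated with final 8 μM SLIGKV, 3.1 U/mL trypsin, 1 U/mL thrombin or 0.6 μM UTP; calcium fluorescence read.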

Data set [2] deals with Thrombin-stimulated Ca2+ response in HT-29 cells. Briefly: Ca FLIPR TETRA assay, ANTAGONIST mode, stimulation with 1 U/mL Thrombin. In kind it is cell-based, human. Conditions: Homo sapiens; HT-29 cells, antagonist mode, stimulation with 1 U/mL Thrombin. An outline of the steps:
as §1

Data set [3] is described as follows: In vivo rat pharmacokinetics (intravenous and oral). The note with it: plasma; for clearance: intravenous 0.5 to 1 mg/kg, read-out: Clp; for Vd: intravenous, read-out: Vss; for bioavailability: oral by gavage; for half-life: read-out: T ½ (converted). Here is the method: Example 61: Protocol for Testing PAR2 Compounds In Vivo Rat Pharmacokinetics Experiments
Compounds delivered by intravenous route were formulated using a solution formulation consisting of 5% N-methylpyrrolidone 10% Vitamin E-TPGS and 85% water (v/v/) or a solution formulation consisting of 25% N-methylpyrrolidone 35% polyethylene glycol 400 and 40% water (v/v/). Intravenous formulations were administered by a bolus injection (over approximately 10 seconds) using a hypodermic needle attaches to a syringe (tail vein). The dose volume was varied from 1 to 2 mL/kg and the dose was varied from 0.5 to 1 mg/kg. Compounds delivered orally were formulated as a solution formulation consisting of 5% N-methylpyrrolidone 10% Vitamin E-TPGS and 85% water (v/v/) or as fine suspension using a cellulose derivative suspending agent with or without the addition of a wetting agent/surfactant. Milling of large particles was performed as needed to reduce particle size using focused electroacoustic milling, homogenization or low energy media milling. A spray-dried solid dispersion was prepared for key compounds using 1:1 combination with cellulose derivatives. Test compounds were administered orally by gavage using a gavage plastic needle attached to a syringe. The dose volume was varied from 5 to 10 mL/kg and the dose was varied from 1 to 600 mg/kg.
Rats were bled by venipuncture (jugular vein) and the samples were collected into tubes containing K3EDTA. The tubes were placed on wet ice until processed. The samples were centrifuged for approximately 10 minutes (at approximately 4° C.) within approximately 30 minutes of collection to prepare plasma or diluted in citrate buffer (1:3) and stored frozen (approximately −30° C.). Thawed plasma or whole blood samples were extracted by protein precipitation using an organic solvent followed by centrifugation. The supernatants were separated by high-performance liquid chromatography coupled to mass spectrometry detection. A calibration curve was prepared using reference standard compounds spiked into either blank plasma or whole blood matrices and extracted similarly to unknown samples. Pharmacokinetic parameters were calculated using non-compartmental analysis.

For data set [4], the target named is T2, PAR2 (HT-29 cells, trypsin activation) (Homo sapiens, UniProt P55085).
T2 construct: host or cells: HT-29 cells
T2 sequence (P55085 26-397): T1 sequence (P55085 26-397)
Briefly: Ca FLIPR TETRA assay, ANTAGONIST mode, stimulation with 3.1 U/mL trypsin. The note with it: HT-29 cells, antagonist mode, stimulation with 3.1 U/mL trypsin. The class given is cell-based. An outline of the steps:
as §1

Data set [5] concerns UTP-stimulated Ca2+ response in HT-29 cells. Briefly: Ca FLIPR TETRA assay, ANTAGONIST mode, stimulation with 0.6 μM UTP. The class given is cell-based, human. Conditions: Homo sapiens; HT-29 cells, antagonist mode, stimulation with 0.6 μM UTP. An outline of the steps: as §1
Data set [6] relates to carrageenan-induced paw edema. Briefly: Rat carrageenan-induced paw edema model. In kind it is in vivo, Sprague Dawley rats. Conditions: given before carrageenan challenge. On the procedure: (§2) Male Sprague Dawley rats and BALB/c mice were housed in groups in a temperature controlled room and were acclimatized in the animal facility for at least three days prior to use. Experiments were performed during the light phase of the cycle. Animals have food and water ad libitum.
Example 63: Rat Carrageenan-Induced Paw Edema Model
Peripheral inflammation was induced by intra-plantar administration of 100 ul of a 1% w/volume (in saline) carrageenan solution under isoflurane anesthesia. The degree of swelling was assessed using the plethysmometer at 2-3-4-5-6 h after carrageenan injection. Test compound or vehicle (0.5% MC/0.1% SDS) was systemically administered at the indicated doses in a volume of 5 mL/kg either I-3 hour before carrageenan challenge (Table 9) or 2 hours post carrageenan challenge (Table 10).
(§3) Data are expressed as the mean % effect. Statistical significance was assessed using t-test for comparison between naive and inflamed rats, and one-way ANOVA followed by post-hoc comparison test for overall drug effectiveness. A difference between groups is considered significant with a p value of <0.05. *, p<0.05; **, p<0.01; ***, p<0.001 vs. vehicle.
A general note: Carrageenan injected into the paw causes an acute inflammation.

The subject of data set [7] is tryptase-induced mechanical hypersensitivity. Briefly: Rat tryptase-induced mechanical hypersensitivity model. In kind it is in vivo, Sprague Dawley rats. The note with it: given 3-18 h before the tryptase challenge. On the procedure:
as §2
Example 64: Rat Tryptase-Induced Mechanical Hypersensitivity Model
Peripheral sensitization was induced by intra-dermal administration of 500 ng of tryptase in a volume of 10 ul PBS under isoflurane anesthesia. Rats were then placed on a wire mesh grid in separate compartments and allowed to acclimatize before testing. Mechanical hypersensitivity was assessed 30 min after tryptase injection using calibrated von Frey filaments applied perpendicular to the plantar surface of the affected paw using the up-and-down method. Test compounds or vehicle (0.5% MC/0.1% SDS) were systemically administered at doses indicated in a volume of 5 mL/kg 3-18 h before the tryptase challenge (Table 11) or 30 minutes post tryptase challenge (Table 12).
as §3

Usually IC50 stands for the concentration needed to halve the response being measured. `CC(C)(C)c1cc(-c2ccc(F)cc2)nn2cc(C(=O)N3CCN(C(=O)C4CC(O)(C(F)(F)F)C4)CC3(C)C)nc12` (stereo not shown) [Compound I-199]: the half-inhibitory concentration (IC50) in data set [1] was 0.0001 µM; in data set [2], > 1 µM; in data set [4], 0.0002 µM; in data set [5], > 1 µM. Further, in data set [3], the clearance is 0.192 L/h/kg. In addition, the Vd in data set [3] came to 4.2 L/kg. The bioavailability in data set [3] came to 67%. The half-life in data set [3] was 18.1 h. The “% inhibition of carrageenan induced paw edema” value is on record as 14% in data set [6] (dose 7.5 mg/kg) and 52*** % in data set [6] (dose 20 mg/kg).

Regarding `CC(C)(C)c1cc(-c2ccc(F)cc2)nn2cc(C(=O)N3CCN(C(=O)c4ccn[nH]4)CC3(C)C)nc12` [Compound I-201], the half-maximal inhibitory concentration (IC50) in data set [1] worked out at 0.0007 µM; in data set [2], 0.37 µM; in data set [4], 0.0009 µM; in data set [5], 0.56 µM. Moreover, the “% inhibition of tryptase-induced nociception” value is recorded as 52** % in data set [7] (dose 5 mg/kg) and 65*** % in data set [7] (dose 15 mg/kg). The clearance in data set [3] amounted to 0.654 L/h/kg. The Vd in data set [3] turned out to be 3.3 L/kg. The bioavailability in data set [3] stood at 55%. Further, in data set [3], the half-life is 4.3 h. Moreover, the “% inhibition of carrageenan induced paw edema” value in data set [6] (dose 5 mg/kg) is reported as 55** %; in data set [6] (dose 20 mg/kg), 60*** %.

For `CC(C)(C)c1cc(-c2ccc(F)cc2)nn2cc(C(=O)N3CCN(C(=O)c4c[nH]cn4)CC3(C)C)nc12` [Compound I-232], the IC50 in data set [1] stood at 0.001 µM. Further, the IC50 in data set [2] amounted to 0.89 µM. In addition, in data set [3], the clearance turned out to be 1.01 L/h/kg, the Vd turned out to be 3.3 L/kg, the bioavailability worked out at 75% and the half-life was 2.5 h. Also, in data set [4], the IC50 is 0.0014 µM. In addition, in data set [5], the IC50 stood at 0.9 µM. For the same compound, the “% inhibition of carrageenan induced paw edema” value in data set [6] (dose 10 mg/kg) is recorded as 19* %.

Regarding `CC(C)(C)c1cc(-c2ccc(C(F)(F)F)cc2)nn2cc(C(=O)N3CCNC(=O)C3(C)C)nc12` [Compound I-283, 4-[8-tert-butyl-6-[4-(trifluoromethyl)phenyl]imidazo[1,2-b]pyridazine-2-carbonyl]-3,3-dimethyl-piperazin-2-one], the IC50 in data set [1] amounted to 0.0022 µM. For the same compound, the IC50 in data set [2] was > 1 µM. Moreover, in data set [3], the clearance is 0.0642 L/h/kg, the Vd stood at 6.82 L/kg, the bioavailability was found to be 76% and the half-life is 77.9 h. In addition, the IC50 in data set [4] amounted to 0.002 µM. Further, the IC50 in data set [5] was > 1 µM. In addition, in data set [6] (dose 20 mg/kg), the “% inhibition of carrageenan induced paw edema” value was 19* %.

With `CC(C)(C)c1cc(-c2ccc(Cl)cc2)nn2cc(C(=O)N3CCN(C(=O)[C@H]4C[C@@](C)(O)C4)CC3(C)C)nc12` [Compound I-421], the IC50 in data set [1] is 0.0003 µM; in data set [2], > 1 µM; in data set [4], 0.0002 µM; in data set [5] it was > 1 µM. The clearance in data set [3] amounted to 0.369 L/h/kg. Moreover, in data set [3], the Vd was determined as 3.07 L/kg. Besides, in data set [3], the bioavailability turned out to be 189%. Besides, the half-life in data set [3] was 9.62 h. Besides, the entries for the “% inhibition of carrageenan induced paw edema” value in data set [6] (dose 1 mg/kg) and in data set [6] (dose 10 mg/kg) were 11% and −32** %, respectively.

For the compound `CC(C)(C)c1cc(C2CCC(F)(F)CC2)nn2cc(C(=O)N3CCN(c4cn[nH]c4)C(=O)C3(C)C)nc12` [Compound I-429], the IC50 in data set [1] is 0.0024 µM; in data set [2], > 1 µM; in data set [4] it was 0.0033 µM; in data set [5], > 1 µM. Besides, the “% inhibition of carrageenan induced paw edema” value in data set [6] (dose 20 mg/kg) is recorded as 43** %.

On to `Cc1nc(C(=O)N2CCN(C(=O)c3cn4nc(-c5ccc(Cl)cc5)cc(C(C)(C)C)c4n3)C(C)(C)C2)n[nH]1` [Compound I-436, [8-tert-butyl-6-(4-chlorophenyl)imidazo[1,2-b]pyridazin-2-yl]-[2,2-dimethyl-4-(5-methyl-1H-1,2,4-triazole-3-carbonyl)piperazin-1-yl]methanone], for which the IC50 in data set [1] is 0.0003 µM; in data set [2], 11 µM; in data set [4], 0.0004 µM; in data set [5] it was 3.6 µM. Also, in data set [3], the clearance was 0.253 L/h/kg. Also, the Vd in data set [3] amounted to 2.05 L/kg. Besides, in data set [3], the bioavailability was 77%. Besides, in data set [3], the half-life was 7.5 h. For the same compound, the “% inhibition of carrageenan induced paw edema” value in data set [6] (dose 1 mg/kg) is listed as −17* %; in data set [6] (dose 30 mg/kg), 36** %.

As to `Cc1nnc(C(=O)N2CCN(C(=O)c3cn4nc(C5CCC(F)(F)CC5)cc(C(C)(C)C)c4n3)C(C)(C)C2)[nH]1` [Compound I-448, [8-tert-butyl-6-(4,4-difluorocyclohexyl)imidazo[1,2-b]pyridazin-2-yl]-[2,2-dimethyl-4-(5-methyl-4H-1,2,4-triazole-3-carbonyl)piperazin-1-yl]methanone], the 50% inhibitory concentration (IC50) in data set [1] stood at 0.0069 µM. Also, the IC50 in data set [2] was determined as 17.5 µM. Also, in data set [3], the clearance was 0.386 L/h/kg, the Vd is 1.84 L/kg, the bioavailability amounted to 87% and the half-life is 5.14 h. Further, in data set [4], the IC50 amounted to 0.0114 µM. Moreover, the IC50 in data set [5] came out at 14.5 µM. Besides, in data set [6] (dose 20 mg/kg), the “% inhibition of carrageenan induced paw edema” value was found to be 15%.

On to `Cc1n[nH]c(C(=O)N2CCN(C(=O)c3cn4nc(-c5ccc(F)cc5)cc(C(C)(C)C)c4n3)CC2)n1` [Compound I-525], for which the concentration for half-maximal inhibition (IC50) was 0.116 µM in data set [1], > 1 µM in data set [2], 0.247 µM in data set [4] and > 1 µM in data set [5]. Moreover, the “% inhibition of carrageenan induced paw edema” value in data set [6] (dose 50 mg/kg) is 9%.
